A word on the IC50: it is the midpoint of a concentration-inhibition curve. As usually defined, the Dmax is the greatest extent of degradation seen. The DC50 is the midpoint of the concentration-degradation curve.

Assay [1] addresses T1, IRAK4 (Homo sapiens (Human), UniProt Q9NWZ3). Put plainly: IRAK4 Biochemical HTRF Kinase Assay. The note with it: read-out: IRAK4 HTRF biochemical: IC50. Put shortly: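 IC50 values derive from non-linear regression of sixteen concentrations in duplicate. Kinase reaction ran 90 min at ambient temperature after adding 5 μM STK-S1 substrate, 10 mM ATP and 10 mM MgCl2 (reaction-solution levels, pre-dilution to 10 μl); phospho-peptide detected by HTRF after 60 min.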
Background: In TR-FRET formats the signal depends on donor and acceptor labels being close together.
Target sequence in this assay (Q9NWZ3 whole entry, species assumed): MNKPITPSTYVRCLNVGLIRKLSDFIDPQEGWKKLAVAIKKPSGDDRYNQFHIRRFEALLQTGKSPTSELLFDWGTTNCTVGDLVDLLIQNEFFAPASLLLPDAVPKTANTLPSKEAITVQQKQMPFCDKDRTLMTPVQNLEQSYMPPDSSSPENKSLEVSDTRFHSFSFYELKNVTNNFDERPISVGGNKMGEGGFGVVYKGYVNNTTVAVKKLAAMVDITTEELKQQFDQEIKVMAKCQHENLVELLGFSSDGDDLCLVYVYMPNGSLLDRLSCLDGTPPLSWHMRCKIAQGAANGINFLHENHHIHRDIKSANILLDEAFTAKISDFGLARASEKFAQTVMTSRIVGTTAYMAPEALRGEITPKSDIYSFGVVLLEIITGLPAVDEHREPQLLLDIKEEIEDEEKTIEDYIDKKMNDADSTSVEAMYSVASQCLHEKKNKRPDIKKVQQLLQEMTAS

The target of assay [2] is T1, IRAK4. Put plainly: IRAK4 Degradation HiBiT Assay. The following applies: HiBiT-tagged Jurkat cells, 4 hrs; for Dmax: Jurkat; for DC50: read-out: Cellular IRAK4 HiBiT: DC50. On the technique in general: HiBiT is a short tag that completes a luciferase, so light tracks the accessible tagged protein.
Target sequence in this assay (Q9NWZ3 whole entry): as the sequence (Q9NWZ3 whole entry, species assumed) above
The mark [3] stands for this setting: read-out: Cellular IRAK4 HiBiT: Dmax, Table 4.
Where [4] appears, read: read-out: Cellular IRAK4 HiBiT: Dmax, Table 5, multiple runs.

Like-named read-outs stand apart in the source and are kept apart here.

Take `CC(C)Nc1cc(-c2ccc3cc(C#N)cnn23)ncc1-c1nnc(N2CCN(C(=O)CCCCCNc3cccc4c3C(=O)N(C3CCC(=O)NC3=O)C4=O)CC2)s1` (stereo not drawn) [Example 9, 7-(5-(5-(4-(6-((2-(2,6-dioxopiperidin-3-yl)-1,3-dioxoisoindolin-4-yl)amino)hexanoyl)piperazin-1-yl)-1,3,4-thiadiazol-2-yl)-4-(isopropylamino)pyridin-2-yl)pyrrolo[1,2-b]pyridazine-3-carbonitrile]: the IC50 came to 2.9 nM at IRAK4 [1] (Table 4) and 2.9 nM on IRAK4 [1] (Table 5, multiple runs). In addition, the Dmax at IRAK4 [2] (setting [3]) and on IRAK4 [2] (setting [4]) was 125% in each case. Also, the DC50 at IRAK4 [2] (Table 4) came out at 218 nM; on IRAK4 [2] (Table 5, multiple runs) it was 217 nM.
For `CC(C)Nc1cc(-c2ccc3cc(C#N)cnn23)ncc1-c1nnc(N2CCN(C3CCN(C(=O)Cc4ccc5c(c4)CN(C4CCC(=O)NC4=O)C5=O)CC3)CC2)s1` (stereo not drawn) [Example 75, 7-(5-(5-(4-(1-(2-(2-(2,6-dioxopiperidin-3-yl)-1-oxoisoindolin-5-yl)acetyl)piperidin-4-yl)piperazin-1-yl)-1,3,4-thiadiazol-2-yl)-4-(isopropylamino)pyridin-2-yl)pyrrolo[1,2-b]pyridazine-3-carbonitrile], the IC50 at IRAK4 [1] (Table 5, multiple runs) was 0.8 nM. The Dmax at IRAK4 [2] (setting [4]) amounted to 111%. In addition, the DC50 at IRAK4 [2] (Table 5, multiple runs) is 8.59 nM.
The matching figures for `CNc1cc(-c2ccc3cc(C#N)cnn23)ncc1-c1nnc(N2CCC(NC(=O)C[C@H](NC(=O)[C@@H]3C[C@@H](O)CN3C(=O)[C@@H](NC(=O)C3(F)CC3)C(C)(C)C)c3ccc(-c4scnc4C)cc3)CC2)s1` [Example 146, (2S,4R)—N—((S)-3-((1-(5-(6-(3-cyanopyrrolo[1,2-b]pyridazin-7-yl)-4-(methylamino)pyridin-3-yl)-1,3,4-thiadiazol-2-yl)piperidin-4-yl)amino)-1-(4-(4-methylthiazol-5-yl)phenyl)-3-oxopropyl)-1-((S)-2-(1-fluorocyclopropane-1-carboxamido)-3,3-dimethylbutanoyl)-4-hydroxypyrrolidine-2-carboxamide]: 2.9 nM, 77% and 231 nM.
On to `CNc1cc(-c2ccc3cc(C#N)cnn23)ncc1-c1nnc([C@H]2CC[C@H](NC(=O)CCC(=O)N[C@H](C(=O)N3C[C@H](O)C[C@H]3C(=O)N[C@@H](C)c3ccc(-c4scnc4C)cc3)C(C)(C)C)CC2)s1` [Example 56, N1-((1r,4S)-4-(5-(6-(3-cyanopyrrolo[1,2-b]pyridazin-7-yl)-4-(methylamino)pyridin-3-yl)-1,3,4-thiadiazol-2-yl)cyclohexyl)-N4—((S)-1-((2S,4R)-4-hydroxy-2-(((S)-1-(4-(4-methylthiazol-5-yl)phenyl)ethyl)carbamoyl)pyrrolidin-1-yl)-3,3-dimethyl-1-oxobutan-2-yl)succinamide], for which the IC50 on IRAK4 [1] (Table 4) was 2.79 nM; at IRAK4 [1] (Table 5, multiple runs), 1.5 nM. Moreover, the Dmax at IRAK4 [2] (setting [3]) was determined as 115%; on IRAK4 [2] (setting [4]), 117%. The half-maximal degradation concentration (DC50) at IRAK4 [2] (Table 4) worked out at 77.6 nM; at IRAK4 [2] (Table 5, multiple runs), 52.9 nM.
For `CNc1cc(-c2ccc3cc(C#N)cnn23)ncc1-c1nnc(N2CC3(CCN(CC4CCN(c5ccc(C(=O)NC6CCC(=O)NC6=O)cc5)CC4)CC3)C2)s1` (stereo not drawn) [Example 182, 4-(4-((2-(5-(6-(3-cyanopyrrolo[1,2-b]pyridazin-7-yl)-4-(methylamino)pyridin-3-yl)-1,3,4-thiadiazol-2-yl)-2,7-diazaspiro[3.5]nonan-7-yl)methyl)piperidin-1-yl)-N-(2,6-dioxopiperidin-3-yl)benzamide], the IC50 at IRAK4 [1] (Table 5, multiple runs) was 0.5 nM. For the same molecule, the Dmax at IRAK4 [2] (setting [4]) came to 120%. The DC50 at IRAK4 [2] (Table 5, multiple runs) stood at 159 nM.
The matching figures for `CNc1cc(-c2ccc3cc(C#N)cnn23)ncc1-c1nnc([C@H]2CC[C@@H](NC(=O)CCOCCNc3cccc4c3C(=O)N(C3CCC(=O)NC3=O)C4=O)CC2)s1` (stereo partly drawn) [Example 116, N-((1s,4s)-4-(5-(6-(3-cyanopyrrolo[1,2-b]pyridazin-7-yl)-4-(methylamino)pyridin-3-yl)-1,3,4-thiadiazol-2-yl)cyclohexyl)-3-(2-((2-(2,6-dioxopiperidin-3-yl)-1,3-dioxoisoindolin-4-yl)amino)ethoxy)propanamide]: 2.2 nM, 60% and 46.3 nM.
